Measured values taken from patent US20050239806A1, “Pyrrolopyrimidine derivatives and analogs and their use in the treatment and prevention of diseases” (Ambit Biosciences Corporation, priority 2004, published 2005).

What was measured:
[1] = target: T1, human EGFR (wildtype), EGFR(DKIN) (Homo sapiens, UniProt P00533); test: Binding of wildtype-EGFR (T7 phage-displayed kinase competition binding)
T1 construct: Kd for EGFR(DKIN); made in house
Description: Methods for measuring binding affinities for interactions between small molecules and kinases including FLT3, c-KIT, ABL([…]) [a.k.a. ABL([…])], VEGFR-2 (a.k.a. KDR), and EGFR are described in detail in U.S. application Ser. No. 10/873,835, which is incorporated by reference herein in its entirety. The components of the assays include human kinases expressed as fusions to T7 bacteriophage particles and immobilized ligands that bind to the ATP site of the kinases. […] If the test compound binds the kinase it competes with the immobilized ligand and prevents binding to the solid support. […] The results are read out by quantitating the amount of fusion protein bound to the solid support, which is accomplished by either traditional phage plaque assays or by quantitative PCR (qPCR) using the phage genome as a template. […] The concentration of test molecule that reduces the number of phage bound to the solid support by 50% is equal to the Kd for the interaction between the kinase and the test molecule. Typically, data are collected for twelve concentrations of test compound and, the resultant binding curve is fit to a non-cooperative binding isotherm to calculate Kd. Described in the exemplary assays below is data from binding with varying kinases. […] The term “ND” represents non-determined values. […] The Kd for the interaction between the soluble compound (competitor) molecule and EGFR is equal to the concentration of soluble competitor molecule that causes a 50% reduction in the number of phage recovered in the eluate compared to a control sample lacking soluble competitor.

[2] = target: T2, EGFR (tyrosine 1173 phosphorylation) in A431 cells (Homo sapiens, UniProt P00533); test: EGFR Autophosphorylation Inhibition Assay in Epidermoid Carcinoma Cell Line A431; format: cell-based; conditions: EGF-induced phosphorylation of tyrosine 1173
T2 construct: endogenous in cells; host or cells: A431
T2 sequence (P00533 25-1210): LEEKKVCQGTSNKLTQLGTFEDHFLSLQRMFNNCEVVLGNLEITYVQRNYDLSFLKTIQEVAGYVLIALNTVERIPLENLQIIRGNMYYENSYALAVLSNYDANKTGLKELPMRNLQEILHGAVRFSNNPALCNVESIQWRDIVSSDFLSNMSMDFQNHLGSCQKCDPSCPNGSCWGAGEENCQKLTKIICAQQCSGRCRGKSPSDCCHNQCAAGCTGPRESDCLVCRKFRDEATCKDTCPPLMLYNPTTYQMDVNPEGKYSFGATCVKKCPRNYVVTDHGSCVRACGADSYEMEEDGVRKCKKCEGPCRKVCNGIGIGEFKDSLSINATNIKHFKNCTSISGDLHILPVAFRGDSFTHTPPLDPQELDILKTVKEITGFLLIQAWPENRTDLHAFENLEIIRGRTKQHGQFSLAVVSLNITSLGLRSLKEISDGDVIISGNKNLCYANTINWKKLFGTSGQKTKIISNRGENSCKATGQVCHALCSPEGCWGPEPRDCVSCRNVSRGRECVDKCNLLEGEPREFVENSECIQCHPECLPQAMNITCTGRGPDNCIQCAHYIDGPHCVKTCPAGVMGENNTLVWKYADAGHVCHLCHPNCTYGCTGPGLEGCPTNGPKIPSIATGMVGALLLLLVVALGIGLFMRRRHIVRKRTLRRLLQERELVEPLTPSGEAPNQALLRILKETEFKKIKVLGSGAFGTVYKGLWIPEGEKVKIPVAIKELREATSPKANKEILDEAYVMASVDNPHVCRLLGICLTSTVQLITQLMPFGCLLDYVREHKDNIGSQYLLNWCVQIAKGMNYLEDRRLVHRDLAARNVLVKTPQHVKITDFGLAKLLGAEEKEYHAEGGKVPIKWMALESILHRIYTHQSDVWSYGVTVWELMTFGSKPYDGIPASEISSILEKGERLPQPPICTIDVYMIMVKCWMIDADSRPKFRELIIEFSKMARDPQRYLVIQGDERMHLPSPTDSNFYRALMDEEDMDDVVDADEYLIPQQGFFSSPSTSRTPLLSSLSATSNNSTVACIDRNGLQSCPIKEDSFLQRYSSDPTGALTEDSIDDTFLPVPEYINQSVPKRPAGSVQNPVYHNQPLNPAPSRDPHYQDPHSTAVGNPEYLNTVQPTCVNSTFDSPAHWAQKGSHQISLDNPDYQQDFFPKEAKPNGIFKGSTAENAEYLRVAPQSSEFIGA
Description: (§1) Tyrosine 1173 is a major autophosphorylation site resulting from activation of EGFR by epidermal growth factor (EGF). To determine the capacity of a compound to inhibit this phosphorylation activity of EGFR upon itself, the following methodology was used: 4×10^4 A431 cells/well in a 96-well culture plate or 3.6×10^5 A549 cells/well in a 24-well culture plate were cultured overnight at 37° C. in 5% CO2 in low serum culture medium (DMEM supplemented with 0.5% fetal calf serum, 4.500 mg/L glucose and 100 units/ml penicillin-streptomycin). After 16 hours, the cells were pre-incubated in eight serial 3-fold dilutions of test compound (3.3 μM-0.0017 μM) in addition to vehicle control (final concentration on DMSO vehicle was 1%) for two hours. Cells were stimulated by the addition of 5 ng/ml of EGF for five minutes. Cells were then washed with cold phosphate buffered saline (PBS), and incubated for 30 minutes at 4° C. in lysis buffer. Subsequently, the samples were centrifuged at 6000× RCF for 15 minutes, and the level of phosphorylation of EGFR tyrosine 1173 was measured using a sandwich enzyme-linked immunosorbent assay following the manufacturer's recommended protocols (Biosource, Camarillo, Calif.). Total EGFR levels were also measured in the same manner to control for protein level differences. The reported values are those concentrations of compound required to inhibit EGF-induced phosphorylation of tyrosine 1173 by 50%.

[3] = target: T3, EGFR (tyrosine 1173 phosphorylation) in Lung Cancer Cell Line A459 (Homo sapiens, UniProt P00533); test: EGFR Autophosphorylation Inhibition Assay in Lung Cancer Cell Line A459; format: cell-based; conditions: EGF-induced phosphorylation of tyrosine 1173
T3 construct: endogenous in cells
T3 sequence (P00533 25-1210): as above
Description: as §1

T1 sequence (P00533 712-979 limits assumed): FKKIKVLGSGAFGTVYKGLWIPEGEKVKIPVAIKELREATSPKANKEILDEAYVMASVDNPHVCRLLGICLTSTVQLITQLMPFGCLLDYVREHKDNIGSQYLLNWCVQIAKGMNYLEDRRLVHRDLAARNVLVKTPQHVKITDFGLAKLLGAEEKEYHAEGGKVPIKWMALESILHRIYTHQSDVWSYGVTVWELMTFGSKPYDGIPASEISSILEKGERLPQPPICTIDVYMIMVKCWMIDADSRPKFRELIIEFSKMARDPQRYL

| SMILES | Kd [1] [nM] | IC50 [2] [nM] | IC50 [3] [nM] |
| --- | --- | --- | --- |
| Cc1cccc(Sc2ncnc3c2[nH]c2ccccc23)c1 [Compound K12] | 100 to 1000 | – | – |
| COc1cccc(-c2cc3c(Sc4cccc(Br)c4)ncnc3[nH]2)c1 [Compound J23] | < 100 | 100 to 1000 | 100 to 1000 |
| Cc1ccc(Sc2ncnc3[nH]c(-c4ccc(O)cc4)cc23)cc1 [Compound L9] | < 100 | 100 to 1000 | 1000 to 10000 |
| COc1ccc(-c2cc3c(Sc4ccc(F)cc4)ncnc3[nH]2)cc1 [Compound J13] | < 100 | 1000 to 10000 | – |
| COc1cccc(-c2cc3c(Oc4cc(C)cc(C)c4)ncnc3[nH]2)c1 [Compound D18] | 100 to 1000 | – | – |
| COc1ccc(-c2cc3c(Sc4cccc(OC)c4)ncnc3[nH]2)cc1 [Compound J9] | 100 to 1000 | – | – |
| COc1ccc(-c2cc3c(Sc4ccc(Cl)c(Cl)c4)ncnc3[nH]2)cc1 [Compound J3] | 100 to 1000 | – | – |
| COc1ccc(-c2cc3c(Oc4cccc(Cl)c4)ncnc3[nH]2)cc1 [Compound D5] | < 100 | 100 to 1000 | – |
| COc1cccc(Sc2ncnc3[nH]c(-c4ccc(O)cc4)cc23)c1 [Compound L4] | 100 to 1000 | – | – |
| CCc1ccccc1Sc1ncnc2[nH]c(-c3cccc(OC)c3)cc12 [Compound J20] | < 100 | 1000 to 10000 | – |
| COc1ccc(-c2cc3c(OCc4cccc(C)c4)ncnc3[nH]2)cc1 [Compound C3] | > 10000 | – | – |
| Cc1cc(C)cc(Sc2ncnc3[nH]c(-c4ccc(O)cc4)cc23)c1 [Compound J18] | 100 to 1000 | – | – |
| COc1cccc(Oc2ncnc3[nH]c(-c4ccc(O)cc4)cc23)c1 [Compound E4] | 100 to 1000 | – | – |
| COc1ccc(-c2cc3c(Sc4ccc(C)cc4)ncnc3[nH]2)cc1 [Compound J14] | < 100 | 1000 to 10000 | 1000 to 10000 |
| COc1cccc(-c2cc3c(Sc4ccccc4Cl)ncnc3[nH]2)c1 [Compound J19] | < 100 | 1000 to 10000 | 1000 to 10000 |
| Fc1ccc(Sc2ncnc3c2[nH]c2ccccc23)cc1 [Compound K14] | < 100 | 100 to 1000 | 100 to 1000 |
| Oc1ccc(-c2cc3c(Sc4ccc(Cl)cc4)ncnc3[nH]2)cc1 [Compound L7] | < 100 | 100 to 1000 | 1000 to 10000 |
| COc1ccc(-c2cc3c(Oc4cccc(C)c4)ncnc3[nH]2)cc1 [Compound D8] | < 100 | – | – |
| COc1cccc(-c2cc3c(Oc4cccc(C(F)(F)F)c4)ncnc3[nH]2)c1 [Compound D21] | 100 to 1000 | – | – |
| Cc1cccc(Sc2ncnc3[nH]c(-c4ccc(O)cc4)cc23)c1 [Compound L5] | < 100 | < 100 | 1000 to 10000 |
| COc1ccc(-c2cc3c(OCc4ccccc4)ncnc3[nH]2)cc1 [Compound C4] | 100 to 1000 | – | – |
| COc1cccc(Sc2ncnc3[nH]c(-c4cccc(OC)c4)cc23)c1 [Compound J26] | 100 to 1000 | – | – |
| COc1ccc(-c2cc3c(Sc4cccc(C(F)(F)F)c4)ncnc3[nH]2)cc1 [Compound J11] | 100 to 1000 | – | – |
| Oc1cccc(Sc2ncnc3oc(-c4ccccc4)c(-c4ccccc4)c23)c1 [Compound N4] | 100 to 1000 | – | – |
| c1ccc(Sc2ncnc3c2[nH]c2ccccc23)cc1 [Compound K17] | < 100 | – | – |
| COc1ccc(-c2cc3c(Sc4cccc(F)c4)ncnc3[nH]2)cc1 [Compound J8] | < 100 | 1000 to 10000 | 1000 to 10000 |

| SMILES | Kd [1] [nM] | IC50 [2] [nM] | IC50 [3] [nM] |
| --- | --- | --- | --- |
| COc1cccc(-c2cc3c(Sc4cccc(Cl)c4)ncnc3[nH]2)c1 [Compound J24] | < 100 | 100 to 1000 | 100 to 1000 |
| COc1cccc(-c2cc3c(Sc4ccc(F)cc4)ncnc3[nH]2)c1 [Compound J30] | < 100 | 1000 to 10000 | 1000 to 10000 |
| COc1ccc(-c2cc3c(Sc4ccccc4)ncnc3[nH]2)cc1 [Compound J16] | 100 to 1000 | – | – |
| COc1cccc(-c2cc3c(Sc4cc(Cl)cc(Cl)c4)ncnc3[nH]2)c1 [Compound J21] | > 10000 | – | – |
| COc1cccc(-c2cc3c(Sc4cccc(F)c4)ncnc3[nH]2)c1 [Compound J25] | < 100 | 100 to 1000 | 1000 to 10000 |
| Cc1ccc(Sc2ncnc3c2[nH]c2ccccc23)cc1 [Compound K15] | < 100 | 100 to 1000 | – |
| Clc1cccc(Sc2ncnc3c2[nH]c2ccccc23)c1 [Compound K10] | < 100 | 100 to 1000 | 100 to 1000 |
| COc1cccc(Sc2ncnc3oc(-c4ccccc4)c(-c4ccccc4)c23)c1 [Compound N12] | 100 to 1000 | – | – |
| COc1ccc(-c2cc3c(Sc4ccc(F)c(Cl)c4)ncnc3[nH]2)cc1 [Compound J37] | < 100 | 100 to 1000 | – |
| Oc1ccc(-c2cc3c(Oc4cc(Cl)cc(Cl)c4)ncnc3[nH]2)cc1 [Compound E1, 4-[4-(3,5-Dichloro-phenoxy)-7H-pyrrolo[2,3-d]pyrimidin-6-yl]-phenol] | 100 to 1000 | 100 to 1000 | – |
| COc1cccc(-c2cc3c(Sc4ccc(C(C)(C)C)cc4)ncnc3[nH]2)c1 [Compound J32] | 1000 to 10000 | – | – |
| Clc1ccc(Sc2ncnc3c2[nH]c2ccccc23)cc1 [Compound K13] | < 100 | 100 to 1000 | – |
| COc1cccc(-c2cc3c(Sc4ccccc4)ncnc3[nH]2)c1 [Compound J33] | < 100 | 100 to 1000 | 1000 to 10000 |
| COc1ccc(-c2cc3c(Sc4cccc(Cl)c4)ncnc3[nH]2)cc1 [Compound J7] | < 100 | 1000 to 10000 | 1000 to 10000 |
| COc1ccc(-c2cc3c(Oc4cccc(Br)c4)ncnc3[nH]2)cc1 [Compound D3] | 100 to 1000 | – | – |
| COc1cccc(-c2cc3c(Sc4cc(C)cc(C)c4)ncnc3[nH]2)c1 [Compound J22] | 100 to 1000 | – | – |
| COc1cccc(-c2cc3c(Sc4cccc(C(F)(F)F)c4)ncnc3[nH]2)c1 [Compound J28] | < 100 | 1000 to 10000 | – |
| COc1ccc(-c2cc3c(Sc4cccc(C)c4)ncnc3[nH]2)cc1 [Compound J10] | 100 to 1000 | – | – |
| Oc1ccc(-c2cc3c(SCCc4ccccc4)ncnc3[nH]2)cc1 [Compound L1, 4-(4-Phenethylsulfanyl-7H-pyrrolo[2,3-d]pyrimidin-6-yl)-phenol] | 1000 to 10000 | – | – |
| Cc1cc(C)cc(Oc2ncnc3[nH]c(-c4ccc(O)cc4)cc23)c1 [Compound E2] | < 100 | – | – |
| COc1ccc(Sc2ncnc3[nH]c(-c4ccc(O)cc4)cc23)cc1 [Compound L11] | 100 to 1000 | – | – |
| Cc1ccc(-c2cc3c(Sc4cccc(F)c4)ncnc3[nH]2)cc1 [Compound J17] | 100 to 1000 | – | – |
| Brc1cccc(Sc2ncnc3c2[nH]c2ccccc23)c1 [Compound K8] | < 100 | 100 to 1000 | – |
| COc1cccc(-c2cc3c(Oc4cccc(F)c4)ncnc3[nH]2)c1 [Compound D20] | 100 to 1000 | – | – |
| Clc1ccc(Sc2ncnc3[nH]ccc23)cc1Cl [Compound F3] | 100 to 1000 | – | – |
